Data from patent US9963461B2, “Phillygenin ibuprofen ester, preparation method therefor, and application thereof” (priority 2014, dated 2018).
Marks after values point to notes of the source that are not given here.

Key:
influenza virus = assay: Impact of the drugs on the virus-induced cytopathy (MTT); type: cell-based; details: influenza virus 100 TCID50, Vero cells, about the maximal non-cytotoxic concentration, 72 hours
parainfluenza virus = assay: as above; type: cell-based; details: parainfluenza virus 100 TCID50, Vero cells, about the maximal non-cytotoxic concentration, 72 hours
[1] = tested on: sweat gland epithelial cells at the rat toe part; assay: Sweat secretion of rat paw part (tissue morphology observation method); type: in vivo, Wistar rats; details: rat toe part; 300.0 mg/kg intragastric
Description: This test was based on the mechanism that when rat sweat gland is excited, in addition to sweat secretion increase, the morphology of sweat gland epithelial cell is also changed. The number increase and expansion of empty cells of the sweat gland epithelial cells can be seen under the optical microscope. Such enlarged vacuole presents mitochondrial in sweat gland epithelial cells swelling, rupture, fusion and secretory vesicle enlargement under the electron microscope, and through the morphological observation of the sweat gland epithelial cell at the rat paw part, the secretory activity of the sweat gland can be known. In the test, 70 Wistar rats were selected, with equal male and female number, weighing 120-160 g. […] Besides that subcutaneous injection was used for the pilocarpine solution, intragastric administration was used for all the other groups.

[2] = tested on: rabbit fever induced by typhoid and paratyphoid vaccine; assay: Rabbit fever induced by typhoid and paratyphoid vaccine; type: in vivo, Japanese white rabbits; details: 300 mg/kg
Method: Japanese male big-ear white rabbits, weighing 1.5-2.0 kg. Before the test, WSC-411P portable digital thermometer was used to measure the normal rectal temperature twice (with certain interval for each time), and the average value was taken as the normal body temperature. Then 48 Japanese big-ear white rabbits with body temperature of 38-39.6° C. were selected and randomly divided into 8 groups by weight, namely: the blank control (normal saline) group, the model control (0.5% carboxymethylcellulose) group, the ibuprofen group (300 mg/kg), the phillygenin group (10 mg/kg), the 1.25, 2.5, and 5 mg/kg phillygenin ibuprofen ester groups and the positive drug paracetamol (50 mg/kg) group. The rabbits were fixed in a fixator. The blank control group was intravenously injected with normal saline of 1 ml/kg via the ear margin; The model control group and the drug groups were intravenously injected with typhoid and paratyphoid vaccines of 0.8 ml/kg via the ear margin. When the body temperature rise of the rabbits was greater than 1° C. (requiring about 1-1.5 h, which was restricted to 1 h in this test), the blank control group and the model group were administered intragastrically with 0.5% carboxymethycellulose of 1 ml/kg, and the drug groups were administered intragastrically with phillygenin ibuprofen ester and paracetamol. […]

[3] = tested on: mice pain induced by acetic acid; assay: Analgesic test, mice writhing induced by acetic acid; type: in vivo, Kunming mice; details: 300 mg/kg intragastric; within 15 min after 0.7% acetic acid
Method: 72 Kunming mice were randomly divided into 6 groups, with 12 mice for each group. (1) the blank normal control group (i.e. saline group, […]); (2) positive drug aspirin group (200 mg/kg); (3) ibuprofen group (300 mg/kg); (4) high dose group of phillygenin ibuprofen ester (300 mg/kg); (5) medium dose group of phillygenin ibuprofen ester (150 mg/kg); (6) low dose group of phillygenin ibuprofen ester (75 mg/kg). […] The number of mice writhings within 15 min after administration was recorded. The number of writhings was taken as the evaluation index to evaluate the analgesic effect.

[4] = tested on: rat toe swelling induced by carrageenan; assay: Rat toe swelling induced by carrageenan; type: in vivo, Wistar rats; details: 300 mg/kg sublingual intravenous injection
Method: The test groups were administered by sublingual intravenous injection. Before the test, capillary magnification measurement method was used to measure the normal volume of the right hind foot of the rats in each group. To avoid errors, the measurement location was fixed and the operation was made by one person both before and after the administration. The average value of the two measurements was taken as the normal volume of the right hind foot of the rats before administration. […] The difference between the groups was compared by inter-group t test processing through the difference percentage (swelling ratio) of the paw volume before and after the induced rat inflammation.

[5] = time after administration (min) 30
[6] = time after administration (min) 60
[7] = time after administration (min) 90
[8] = time after administration (min) 120
[9] = time after administration (min) 180

Q: What does the source list for `CC(C)Cc1ccc(C(C)C(=O)O)cc1` (stereo not shown) [Ibuprofen]?
A: antiviral effective rate (ER %) (influenza virus): 75.35** %; antiviral effective rate (ER %) (parainfluenza virus): 80.72** %; Number of sweat glands of vacuole [1]: 57; Void fraction (%) [1]: 27.40*** %; Body temperature (° C.) [2, 5]: 40.74 ± 0.52 °C; antipyretic percentage (%) [2, 5]: −0.90 ± 0.41 %; Body temperature (° C.) [2, 6]: 40.56 ± 0.40 °C; antipyretic percentage (%) [2, 6]: −1.35 ± 0.11 %; Body temperature (° C.) [2, 7]: 40.07 ± 0.44 °C; antipyretic percentage (%) [2, 7]: −2.52 ± 0.13 %; Body temperature (° C.) [2, 8]: 39.88 ± 0.55 °C; antipyretic percentage (%) [2, 8]: −3.00 ± 0.23 %; Body temperature (° C.) [2, 9]: 39.77 ± 0.53 °C; antipyretic percentage (%) [2, 9]: −3.25 ± 0.29 %; Writhing times [3]: 9.7*; Swelling ratio (%) ([4]; 30 min): 0.110 ± 0.119 %; Swelling ratio (%) ([4]; 60 min): 0.151 ± 0.172 %; Swelling ratio (%) ([4]; 120 min): 0.210 ± 0.178 %; Swelling ratio (%) ([4]; 180 min): 0.330 ± 0.337 %; Swelling ratio (%) ([4]; 240 min): 0.4600 ± 0.289 %; Swelling ratio (%) ([4]; 300 min): 0.681 ± 0.369%; Swelling ratio (%) ([4]; 360 min): 0.623 ± 0.338 %
